Like-named read-outs stand apart in the source and are kept apart here.
What was measured:
[1] = formulation CaCl2 99.9 mg | PG ad 1000 mg
Protocol: The purity of Bendamustine hydrochloride and quantity was determined as follows using a standard curve: • Column type: C18, 100×4.6 mm, 2.6 μm • Mobile phase: A: Water/ACN/TFA=950/50/1 v/v/v • B: Water/ACN/TFA=50/950/1 v/v/v • Column temperature: 25° C. • Autosampler temperature: 25° C. • Flow rate: 1.2 mL/min • Detection wavelength: 234 nm HPLC Gradient
To serve as a direct reference, Bendamustine-HCl was also included in the study.
The following compositions were prepared, filled into type 1 glass vials, closed with a rubber stopper and crimp caped. The closed vials were stored at a temperature of 40° C.
At defined time points samples were taken and analyzed be mans of the RP-HPLC method described in Example 1.

[2] = assay type: physicochemical; conditions: in propylene glycol and in PEG400/PG solvent mixture
Protocol: The following Bendamustine containing compositions (25 mg Bendamustine/HCl in 4 g solution) were prepared, filled into type 1 glass vials.

[3] = Dose dependent stabilization effect of calcium chloride in PEG400 (Example 8), purity and content by RP-HPLC; conditions: PEG400/PG and PEG400/ethanol solvent mixtures; 40° C., 8 weeks
Protocol: The organic solvent systems PEG400 with a small amount of alcoholic solvents 1,2-propanediol or ethanol (10% w/w) are to be investigated.
The following Bendamustine containing compositions were prepared. […] The preparations were filled into type 1 glass vials and stoppered with nitrogen overlay. The closed vials were stored at 40° C.:
The purity of Bendamustine-HCl was assessed via RP-HPLC and expressed by relative main peak area. Measurements were carried out in duplicate.
The content of Bendamustine-HCl was assessed via RP-HPLC using a 25 mg/g Bendamustine-HCl standard as reference. Standard solutions were freshly prepared for each individual sampling time point. Standard curves were recorded in duplicate at the beginning and at the end of each sequence. Samples were analyzed in duplicate.

[4] = Stabilizer solubility study (Example 2); assay type: physicochemical; conditions: dissolved at 40° C., stored at 2° C.-5° C. over-night
Protocol: The solubility of potential stabilizers to be tested for Bendamustine-HCl liquid formulation was evaluated in polypropylene glycol. The respective chemical was dissolved in water under continuous stirring at 40° C.

Compound | Purity at 40° C. as relative main peak area [%] by RP-HPLC ([1]; 0 days) [%] | Purity at 40° C. as relative main peak area [%] by RP-HPLC ([1]; 7 days) [%] | Purity at 40° C. as relative main peak area [%] by RP-HPLC ([1]; 14 days) [%] | Purity at 40° C. as relative main peak area [%] by RP-HPLC ([1]; 28 days) [%] | Rel. content at 40° C. determined by RP-HPLC using a calibration curve ([1]; 0 days (ref. T=0)) [%] | Rel. content at 40° C. determined by RP-HPLC using a calibration curve ([1]; 7 days (ref. T=0)) [%] | Rel. content at 40° C. determined by RP-HPLC using a calibration curve ([1]; 14 days (ref. T=0)) [%] | Rel. content at 40° C. determined by RP-HPLC using a calibration curve ([1]; 28 days (ref. T=0)) [%] | also measured
Nc1ncn([C@@H]2O[C@H](CO)[C@@H](O)[C@H]2O)c(=O)n1 [Azacitidine] | 100 | 99.8 | 97.7 | 0.0 | – | – | – | – | –
N[C@@H](Cc1ccc(N(CCCl)CCCl)cc1)C(=O)O [Melphalan] | 99.8 | 98.1 | 97.4 | 95.4 | 100 | 84.6 | 86.2 | 86.5 | –
O=NN(CCCl)C(=O)NCCCl [Carmustine] | 95.8 | 2.1 | 2.0 | 1.9 | 100 | 3.6 | 1.3 | 1.3 | –
CC(=O)[O-].[K+] [KAc] | – | – | – | – | – | – | – | – | stabilizing effect on Bendamustine (conclusion) [2]: no significant stabilizing effect
[Ca+2].[Cl-].[Cl-] [CaCl2, calcium chloride] | – | – | – | – | – | – | – | – | stabilizing effect on Bendamustine (discussion, in words) [3]: clear dose depending stabilizing effect
[Br-].[Br-].[Ca+2] [CaBr2] | – | – | – | – | – | – | – | – | Outcome (stabilizer solubility) ([4]; target concentration 0.9 mol/kg): Complete dissolution
C[N+](C)(C)CCO.[Cl-] [Choline-HCl, choline chloride] | – | – | – | – | – | – | – | – | Outcome (stabilizer solubility) ([4]; target concentration 1.8 mol/kg): Complete dissolution
Cn1c(CCCC(=O)O)nc2cc(N(CCCl)CCCl)ccc21 [Bendamustine] | 99.7 | 98.9 | 98.4 | – | 100 | 98.9 | 98.4 | 95.3 | –
